Test system: NZB/W lupus disease model
Assay: NZBxNZW (NZB/W) lupus disease model
Assay type: in vivo, mouse
Conditions: for mortality: 33, 100 or 300 mg/kg QD PO, 21 weeks of treatment; for impact on anti-dsDNA titers: after 17 weeks of dosing, at 46 weeks of age
Description: FIG. 2A through FIG. 2C show results of testing ER-899742 in the NZBxNZW strain (abbreviated hereafter as NZBWF1/J or NZB/W) lupus disease model. Figure Legend: Female NZBWF1/J mice were received at 5 weeks of age, baseline bleeds were performed, and mice were monitored for disease progression by following anti-dsDNA titers. At 27 weeks of age, mice were randomized into groups with equivalent median anti-dsDNA titers and treated at 29 weeks of age with Vehicle (Veh; 0.5% methyl-cellulose) alone or 33, 100, or 300 mg/kg once-a-day orally (QD PO). At 46 weeks of age after 17 weeks of treatment mice were bled and tested for anti-dsDNA titers. All mice were sacrificed at 50 weeks of age (21 weeks of compound treatment). (FIG. 2A) Just prior to termination at 50 weeks of age (following 21 weeks of treatment), urine was collected from individual mice, and the Urinary Albumin Creatinine Ratio (UACR, proteinuria) was determined for each animal as an indirect measure of kidney function. (FIG. 2B) Timecourse of mortality observed in this study for the highest and lowest dose groups. […] (FIG. 2C) Impact of treatment on anti-dsDNA titers after 17 weeks of dosing, at 46 weeks of age.
FIG. 4A through FIG. 4C show results of testing ER-899464 in the NZB/W disease model in the same experiment as FIG. 2A. Figure Legend: (FIG. 4A) Just prior to termination at 50 weeks of age (following 21 weeks of treatment), urine was collected from individual mice, and the Urinary Albumin Creatinine Ratio (UACR, proteinuria) was determined for each animal as an indirect measure of kidney function. (FIG. 4B) Summary of mortality observed in this study for the highest and lowest dose groups. […] ([…]) Impact of treatment on anti-dsDNA titers after 17 weeks of dosing, at 46 weeks of age.
Mouse Lupus Disease Models.
Mouse lupus disease model strains. Female NZBWF1/J mice were purchased from Jackson Labs (Bar Harbor, Me.), both of which manifest with spontaneous lupus disease. Female DBA/1 mice were purchased from Harlan Laboratories (Indianapolis, Ind.) and at the indicated ages given an intraperitoneal injection of 0.5 ml pristane (2,6,10,14-Tetramethylpentadecane; Sigma, St. Louis, Mo.) to chemically induce lupus disease or of 0.5 ml PBS to generate age-matched, non-diseased control mice.
Female NZBWF1/J mice were received at 5 weeks of age, baseline bleeds were performed, and mice were monitored for disease progression by following anti-dsDNA titers. At 27 weeks of age, mice were randomized into groups with equivalent median anti-dsDNA titers and treated at 29 weeks of age with Vehicle (Veh; 0.5% methyl-cellulose) alone or 33, 100, or 300 mg/kg once-a-day orally (QD PO). At 46 weeks of age after 17 weeks of treatment, mice were bled and tested for anti-dsDNA titers. All mice were sacrificed at 50 weeks of age (21 weeks of compound treatment).
At the end of the experiment kidneys were collected from the animals tested in FIG. 2A through 2C, fixed in 10% formalin for 24 hours, embedded in paraffin, and H&E stained sections were generated for histopathology assessment in a blinded fashion (Grade 0/1+: WNL to minimal; Grade 2: Mild; Grade 3: Moderate to Marked; Grade 4: Severe).
Assessment of auto-antibody titers by ELISA. Anti-dsDNA, -Sm/nRNP, -RiboP, and -Histone titers were evaluated by standard ELISA approach. Briefly, 96-well EIA/RIA ELISA plates (Corning) were coated with 100 ul of diluted antigen in PBS for 90 minutes at room temperature as follows (final concentrations indicated): 10 U/ml Sm/nRNP complex (Immunovision), 10 ug/ml calf thymus dsDNA (Sigma), 5 U/ml RiboP (Immunovision), and 5 ug/ml Histone (Immunovision). Plates were washed with PBS/0.05% Tween20 (washing buffer) and blocked overnight with PBS/1% BSA (blocking buffer) at 4° C. […]

[1] = several doses between 33 and 300 mg/kg

Structure (SMILES)	mortality	% combined incidence of Grade 3 and 4 (33 mpk)	Number of mice with GN Score 0 (33 mpk QD PO, kidney histopathology, Grade 0/1+: WNL to minimal)	Number of mice with GN Score 2+ (33 mpk, Grade 2: Mild)	Number of mice with GN Score 3+ (33 mpk, Grade 3: Moderate to Marked)	Number of mice with GN Score 4+ (33 mpk, Grade 4: Severe)	% combined incidence of Grade 3 and 4 (100 mpk)	Number of mice with GN Score 0 (100 mpk)	Number of mice with GN Score 2+ (100 mpk)	Number of mice with GN Score 3+ (100 mpk)	Number of mice with GN Score 4+ (100 mpk)	% combined incidence of Grade 3 and 4 (300 mpk)	Number of mice with GN Score 0 (300 mpk)	Number of mice with GN Score 2+ (300 mpk)	Number of mice with GN Score 3+ (300 mpk)	Number of mice with GN Score 4+ (300 mpk)	impact on anti-dsDNA titers	histological signs of glomerulonephritis [1]	proteinuria (UACR) [1]	survival [1]
C[C@@H]1CN(c2ccc(C#N)c3ncccc23)C[C@H](C(=O)N[C@H]2CNC[C@H]2F)O1.Cl [ER-899742, (2R,6R)-4-(8-cyanoquinolin-5-yl)-N-[(3S,4R)-4-fluoropyrrolidin-3-yl]-6-methylmorpholine-2-carboxamide hydrochloride]	No mortality was seen with compound treatment	11%	11	5	1	1	6%	15	1	1	0	11%	9	7	0	2	No statistically significant effect was observed	significantly reduced	significantly reduced proteinuria	pronounced survival benefit
C[C@@H]1CN(c2ccc(C#N)c3ncccc23)C[C@H](C(=O)NC2CCN(C)CC2)O1 [ER-899464, (2R,6R)-4-(8-cyanoquinolin-5-yl)-6-methyl-N-(1-methylpiperidin-4-yl)morpholine-2-carboxamide]	No mortality was seen in the middle dose group	–	–	–	–	–	–	–	–	–	–	–	–	–	–	–	No statistically significant effect was observed	–	significantly reduced proteinuria	significant survival benefit

— patent USRE47193E1, “Selectively substituted quinoline compounds” (EISAI R&D MANAGEMENT CO., LTD., priority 2013, dated 2019)
